Key:
[1] = test system: gerbils; test: Gerbil model of stroke (cerebral ischemia/reperfusion); assay type: in vivo; details: for protective effect in gerbil model: 32 mg/kg, Figure V; for locomotor activity of ischemic gerbils: pretreated 30 minutes prior to ischemic event, Figure III
From the text: One of the primary therapeutic uses of pharmaceutical compositions containing these compounds will be in the treatment of stroke. Strokes are associated with cerebral ischemia. Initially, it was thought that the CNS damage that often accompanies a stroke was a direct result of the tissues being deprived of oxygen. Recent research has shown that most of the damage occurs when the tissues are reoxygenated during reperfusion. […] Gastroenterology, 82, 9-15 (1982). Oliver et al has shown that a significant amount of this damage occurs due to free oxygen radicals and the oxidation sequence which they initiate, Proc. Natl. Acad. Sci. USA, vol. 87, pp 5144-5147 July 1990. […] In this model the carotid arteries of gerbils are constricted surgically and after a predetermined period, the constriction is removed so that surrounding tissues may be reperfused. CNS damage, which occurs upon reperfusion, can be measured by the level of protein oxidation that occurs in the brain or by examining the gerbil's behavior. […] Oliver et al and Phillis et al have also shown similar results with PBN, supra and Neuroscience Letter, 116 (1990) 315-319.
The compound, 3,4-dihydro-3,3-dimethylisoquinoline N-oxide which was the product of Example I (hereinafter compound) was tested in a gerbil model as described above. The exact procedure utilized is described by Chandler et al. in Journal of Pharmacological Methods Vol. 14, pages 137-146 (1985). Figures I-V summarize the results that were obtained.
Figure I depicts the effect the compound had on the motor activity of non-ischemic gerbils.
Figure II depicts the effects that ischemia has upon the gerbils locomotor activity.
The gerbils were pretreated with the compound 30 minutes prior to initiation of the ischemic event.
Figure IV compares the neuronal loss of ischemic gerbils receiving various doses of compound with both control gerbils and non-ischemic gerbils.
All compounds were administered at 32 mg/kg. […] Compound A represents the product of Example I, F = Example III, and G = Example II.

[2] = Inhibition of oxidation of soy PC liposome by Fe2+/histidine-Fe3+ (thiobarbituric acid readout); assay type: biochemical; details: histidine/Fe3+ 250:50uM, initiated with 50 uM Fe2+; 15 minutes, 37°C
[3] = test system: ENDOTOXIN TREATED RATS; test: Animal model of septic shock: survival of endotoxin treated rats; assay type: in vivo, Male Sprague Dawley rats; details: 72 hours after endotoxin
Procedure: In this test rats were injected with endotoxin and a control survival rate was determined. Other groups of rats were pretreated with one of the compounds of Formula I at varied dosages and then administered endotoxin and the survival rates were compared. This test was conducted in the following manner. Male Sprague Dawley rats were utilized (weight 215g-300g) in each test group. Endotoxin (30mg/kg) was administered intraperitoneally (IP). A test compound or vehicle was administered IP 30 minutes prior to endotoxin administration. The following results were obtained: TABLE III

[4] = test system: INTERLEUKIN-1 RELEASE BY HUMAN MACROPHAGES; test: Inhibition of interleukin-1 release by endotoxin-stimulated human macrophages (ELISA); assay type: cell-based; details: Macrophage, two million macrophages stimulated with 20 nanograms endotoxin for 24 hours, IL-1 in supernatant
From the text: These include arthritis, psoriasis, athersclerosis, and diabetes. […] One such in-vitro assay is based upon the fact that when human macrophages are exposed to endotoxin, the macrophages secrete IL-1.
The in-vitro studies of IL-1 production was facilitated by a specific property of macrophages, i. e. attachment to non-self, e.g. plastic surface. In this assay, human peripheral blood monocyte-derived macrophages were enriched by plastic adherence. Two million of these macrophages were stimulated with 20 nanograms of endotoxin for 24 hours. Culture supernatants were then collected and the levels of IL-1 were assayed by enzyme-linked immuno-sorbent assay (ELISA). The same assay was repeated except that it was done in the presence of the test compound. The assay was repeated until an IC50 was calculated.

[5] = Inhibition of oxidation of soy PC liposome initiated with hydrogen peroxide and Fe2+ (thiobarbituric acid readout); assay type: biochemical; details: amount required to inhibit 100% of oxidation of soy liposome over 15 minutes; 50uM H2O2, 50uM Fe2+, 37°C, pH 7.0
From the text: One such assay is based upon the fact that the lipid, soybean phosphatidylcholine, readily undergoes oxidation. This oxidation may be initiated by a variety of oxidizing agents such as Fe^2+ and H2O2, or 2,2'-azobis-(2-amidinopropane). A spin trapping agent will decrease the rate at which the lipid undergoes oxidation in this assay. This assay is described in detail in: a) Nilsson, U.A., Olsson, L-I, Carlin, G. and Bylund-Fellenius, A-C. (1989) Inhibition of lipid peroxidation by spin labels. Relationships between structure and function. J. Biol. Chem. 264:11131-11135; and b) Aust, S.D. (1985). Lipid peroxidation. In Handbook of Methods for Oxygen Radical Research. (Greenwald, R.A., ed.) CRC Press, Inc. Boca Raton, Florida, pp. 203-207.
Soybean phosphatidylcholine (PC) was obtained from commercial suppliers such as Sigma or Avanti Polar Lipids. The soy PC was dissolved in ethanol achieving a final concentration of 0.563mM. […]
The ability of a compound to inhibit oxidation of the soy PC liposome was evaluated in the following manner. […]
The samples were heated at 100°C for 20 minutes, cooled and centrifuged. The absorbance of the resulting supernatant was determined at 532-580nm. Quantitation of the thiobarbituric acid/oxidized PC complex was determined by comparison to a standard curve of malondialdehyde equivalents generated by acid catalysed hydrolysis of 1,1,3,3-tetraethoxypropane. […]

[6] = test system: Interleukin-1; test: Blood levels of interleukin-1 in endotoxin-treated mice (ELISA); assay type: in vivo, male Charles-Dawley mice; details: mice given endotoxin and test compound, endotoxin alone 58.3, vehicle without endotoxin 29.2
Procedure: Normal 7 week old male Charles-Dawley mice were utilized in the assay. The mice were injected with vehicle and a baseline blood level of IL-1 was established by an IL-1 specific ELISA ninety (90) minutes after administration. The animals were then administered both endotoxin and vehicle and a blood level of IL-1 was determined. Finally the animals were administered endotoxin and the test compound and the effect upon IL-1 blood levels was determined.

[7] = test system: gerbils; details: literature (Floyd; Oliver et al; Phillis et al); versus control animals; cited from earlier work
[8] = test system: myocardial tissues; details: literature (Bolli et al); cited from earlier work
[9] = test system: animal models of circulatory shock; details: literature (Hamburger & McCay; Novelli et al.); cited from earlier work
[10] = dose 3 mg/kg IP 30 minutes prior to endotoxin (30mg/kg IP)
[11] = dose 10 mg/kg IP 30 minutes prior to endotoxin (30mg/kg IP)
[12] = dose 30 mg/kg IP 30 minutes prior to endotoxin (30mg/kg IP)

Question: For `[O-][N+]1=Cc2ccccc2CC12CCCCC2` [Example II, Sprio [cyclohexane-1,3']-3,4-dihydroisoquinoline-N-oxide], which “protective effect in gerbil model” value [1] is on record?
Answer: The value was “protective effect”.

Question: And the “IC100 Required to prevent Oxidation of Soybean Phosphatidylcholne by Fe^+2/histidine-Fe^3+” value [2]?
Answer: The value was 0.3 mM.

Question: And the “% Surviving” value [3, 10]?
Answer: Its value is 30%.

Question: And the “Survival Rate” value [3, 10]?
Answer: The value was 3/10.

Question: What about the “% Surviving” value [3, 11] of the same compound?
Answer: Its value is 91%.

Question: And the “Survival Rate” value [3, 11]?
Answer: The value was 19/23.

Question: And the IC50 [4]?
Answer: Its IC50 is 200 µM.

Question: What about the “IC100 Required to prevent Oxidation of Soybean Phosphatidylcholne by Fe^+2/H202” value [5] of the same compound?
Answer: Its value is 0.1 mM.

Question: And the “IL-1 (picrogram/ml-serum)” value [6]?
Answer: Its value is 4.7 picrogram/ml-serum.

Question: For `CC1(C)Cc2ccccc2C=[N+]1[O-]` [Example I, 3,4-Dihydro-3,3-dimethylisoquinoline N-oxide], which “locomotor activity of ischemic gerbils” value ([1]; 30mg/kg) is on record?
Answer: Its value is “significantly decreased”.

Question: And the “protective effect in gerbil model” value [1]?
Answer: The value was “protective effect”.

Question: And the “locomotor activity of ischemic gerbils” value ([1]; 100mg/kg)?
Answer: Its value is “significantly decreased”.

Question: What about the “locomotor activity of non-ischemic gerbils” value ([1]; non-ischemic gerbils, Figure I) of the same compound?
Answer: The value was “no effect”.

Question: And the “neuronal loss of ischemic gerbils” value ([1]; various doses, versus control and non-ischemic gerbils, Figure IV)?
Answer: The value was “saved significant amounts of neuronal tissue”.

Question: And the “% Surviving” value [3, 10]?
Answer: The value was 33%.

Question: And the “Survival Rate” value [3, 10]?
Answer: The value was 4/12.

Question: What about the “% Surviving” value [3, 11] of the same compound?
Answer: The value was 58%.

Question: And the “Survival Rate” value [3, 11]?
Answer: The value was 7/12.

Question: And the “% Surviving” value [3, 12]?
Answer: Its value is 83%.

Question: And the “Survival Rate” value [3, 12]?
Answer: Its value is 10/12.

Question: And the IC50 [4]?
Answer: The IC50 was 330 µM.

Question: What about the “IL-1 (picrogram/ml-serum)” value [6] of the same compound?
Answer: Its value is 6.4 picrogram/ml-serum.

Question: Which “CNS damage in gerbil model of stroke” value [7] does the source give for `CC(C)(C)[N+]([O-])=Cc1ccccc1` [PBN, α-phenyl N-tert-butyl nitrone] here?
Answer: Its value is “less CNS damage”.

Question: And the “myocardial dysfunction occurring after reperfusion” value [8]?
Answer: The value was “decreases the amount of myocardial dysfunction”.

Question: What about the “survival in animal models of circulatory shock” value [9] of the same compound?
Answer: Its value is “significantly increase survival”.

Question: Which “protective effect in gerbil model” value [1] does the source give for `[O-][N+]1=Cc2ccccc2CC12CCCC2` [Example III, Spiro [cyclopentane-1,3']-[1H]dihydroisoquinoline 2-oxide] here?
Answer: Its value is “protective effect”.

Question: What about the “IC100 Required to prevent Oxidation of Soybean Phosphatidylcholne by Fe^+2/histidine-Fe^3+” value [2] of the same compound?
Answer: The value was 0.7 mM.

Question: And the “% Surviving” value [3, 11]?
Answer: Its value is 17%.

Question: And the “Survival Rate” value [3, 11]?
Answer: The value was 2/12.

Question: What about the “% Surviving” value [3, 12] of the same compound?
Answer: Its value is 91%.

Question: And the “Survival Rate” value [3, 12]?
Answer: Its value is 10/11.

Question: And the IC50 [4]?
Answer: The IC50 was 100 µM.

Question: And the “IC100 Required to prevent Oxidation of Soybean Phosphatidylcholne by Fe^+2/H202” value [5]?
Answer: Its value is 0.3 mM.

Question: And the “IL-1 (picrogram/ml-serum)” value [6]?
Answer: Its value is 10.2 picrogram/ml-serum.
